15 compounds from PubChem BioAssay AID1607 (NINDS Approved Drug Screening Program, 2009) can be followed below.

Results filed as inconclusive are left out.

The term EC50 denotes the concentration giving half of the maximal effect.

The subject of the test is cells expressing AR112-GFP, GFP fluorescence. The test is described as follows: AR112GFP polyglutamine androgen receptor turnover promoters – cell-based, GFP fluorescence (AID 1607).
For the compound `CNCCCN1c2ccccc2CCc2ccccc21`, the half-maximal effective concentration (EC50) is 3.12 µM.
For `CC(CN(C)C)CN1c2ccccc2CCc2ccccc21` (stereo not given) the value was 3.75 µM.
To `COc1ccc2cc3[n+](cc2c1OC)CCc1cc2c(cc1-3)OCO2` belongs 3.12 µM; to `CCc1nc(N)nc(N)c1-c1ccc(Cl)cc1`, 3.75 µM; to `CN(C)C(=O)C(CCN1CCC(O)(c2ccc(Cl)cc2)CC1)(c1ccccc1)c1ccccc1`, 3.75 µM.
On to `O=c1cc(-c2ccccc2)oc2c(O)c(O)ccc12`, for which the EC50 was 2.5 µM.
To `CN(C)CCC=C1c2ccccc2C=Cc2ccccc21` belongs 3.12 µM; to `COC(=O)[C@H]1[C@H]2C[C@@H]3c4[nH]c5cc(OC)ccc5c4CCN3C[C@H]2C[C@@H](OC(=O)c2cc(OC)c(OC)c(OC)c2)[C@@H]1OC`, 3.75 µM.
On to `NCCc1cc(O)c(O)cc1O`, for which the EC50 was 3.12 µM.
On to `CN1CCC[C@@H]1CCO[C@](C)(c1ccccc1)c1ccc(Cl)cc1`, for which the 50% effective concentration (EC50) is 3.12 µM.
For `Clc1ccc(C(OCCN2CCCCC2)c2ccccc2)cc1` (stereo not given) the value was 3.75 µM; for `CCC(C)[C@H]1O[C@]2(C=C[C@@H]1C)C[C@@H]1C[C@@H](C/C=C(\C)[C@@H](OC3C[C@H](OC)C(O[C@H]4C[C@H](OC)[C@@H](O)[C@H](C)O4)[C@H](C)O3)[C@@H](C)/C=C/C=C3\CO[C@@H]4[C@H](O)C(C)=C[C@@H](C(=O)O1)[C@]34O)O2` (stereo not given in full), 3.75 µM; for `CC(CN(C)C)CN1c2ccccc2Sc2ccccc21` (stereo not given), 3.75 µM.
For `CN1CCN(CCC=C2c3ccccc3Sc3ccc(S(=O)(=O)N(C)C)cc32)CC1` the value was 3.12 µM; for `Fc1ccc(C(c2ccc(F)cc2)N2CCN(C/C=C/c3ccccc3)CC2)cc1`, 3.75 µM.
